Results as given in US10975056B2 (GlaxoSmithKline Intellectual Property Development Limited, priority 2016, dated 2021).
Several values for one entry are separate records, joined by “and”; a condition that tells them apart may be missing. Equal entries are not always repeated. Structures can show the parent of a compound that is named as a salt. Where two headings read alike, the source gives them in different places.

How the values were obtained:
DNMT1 = DNMT1 (Homo sapiens, UniProt P26358); assay: DNMT1 biochemical activity, breaklight assay and/or SPA assay
[1] = tested on: erythroid progenitor cells (EPCs); assay: Fetal hemoglobin (HbF) ELISA in day 7 erythroid progenitor cells; type: cell-based, human; settings: Homo sapiens, Erythroid progenitor cell, HbF ELISA, day 7 EPCs, 5 days; read-out: EPC ELISA (pEC50 category) (converted);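 further: for fetal hemoglobin induction normalized to vehicle-treated cells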
Method in brief: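 CD34+-derived EPCs, 1,000 cells/well, rhEPO 3 U/mL; Compound A 22-pt series, […]; 5 d, 37° C, 5% CO2. Freeze-thaw lysis, anti-HbF capture + HRP anti-HbF, TMB, OD450. Normalized to DMSO wells.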

[2] = binned activity in either the breaklight or the SPA assay, read-out: DNMT1 BioChemical (pIC50 category) (converted)
[3] = binned activity in either the breaklight or the SPA assay

Sequence of DNMT1 (P26358 whole entry, looked up): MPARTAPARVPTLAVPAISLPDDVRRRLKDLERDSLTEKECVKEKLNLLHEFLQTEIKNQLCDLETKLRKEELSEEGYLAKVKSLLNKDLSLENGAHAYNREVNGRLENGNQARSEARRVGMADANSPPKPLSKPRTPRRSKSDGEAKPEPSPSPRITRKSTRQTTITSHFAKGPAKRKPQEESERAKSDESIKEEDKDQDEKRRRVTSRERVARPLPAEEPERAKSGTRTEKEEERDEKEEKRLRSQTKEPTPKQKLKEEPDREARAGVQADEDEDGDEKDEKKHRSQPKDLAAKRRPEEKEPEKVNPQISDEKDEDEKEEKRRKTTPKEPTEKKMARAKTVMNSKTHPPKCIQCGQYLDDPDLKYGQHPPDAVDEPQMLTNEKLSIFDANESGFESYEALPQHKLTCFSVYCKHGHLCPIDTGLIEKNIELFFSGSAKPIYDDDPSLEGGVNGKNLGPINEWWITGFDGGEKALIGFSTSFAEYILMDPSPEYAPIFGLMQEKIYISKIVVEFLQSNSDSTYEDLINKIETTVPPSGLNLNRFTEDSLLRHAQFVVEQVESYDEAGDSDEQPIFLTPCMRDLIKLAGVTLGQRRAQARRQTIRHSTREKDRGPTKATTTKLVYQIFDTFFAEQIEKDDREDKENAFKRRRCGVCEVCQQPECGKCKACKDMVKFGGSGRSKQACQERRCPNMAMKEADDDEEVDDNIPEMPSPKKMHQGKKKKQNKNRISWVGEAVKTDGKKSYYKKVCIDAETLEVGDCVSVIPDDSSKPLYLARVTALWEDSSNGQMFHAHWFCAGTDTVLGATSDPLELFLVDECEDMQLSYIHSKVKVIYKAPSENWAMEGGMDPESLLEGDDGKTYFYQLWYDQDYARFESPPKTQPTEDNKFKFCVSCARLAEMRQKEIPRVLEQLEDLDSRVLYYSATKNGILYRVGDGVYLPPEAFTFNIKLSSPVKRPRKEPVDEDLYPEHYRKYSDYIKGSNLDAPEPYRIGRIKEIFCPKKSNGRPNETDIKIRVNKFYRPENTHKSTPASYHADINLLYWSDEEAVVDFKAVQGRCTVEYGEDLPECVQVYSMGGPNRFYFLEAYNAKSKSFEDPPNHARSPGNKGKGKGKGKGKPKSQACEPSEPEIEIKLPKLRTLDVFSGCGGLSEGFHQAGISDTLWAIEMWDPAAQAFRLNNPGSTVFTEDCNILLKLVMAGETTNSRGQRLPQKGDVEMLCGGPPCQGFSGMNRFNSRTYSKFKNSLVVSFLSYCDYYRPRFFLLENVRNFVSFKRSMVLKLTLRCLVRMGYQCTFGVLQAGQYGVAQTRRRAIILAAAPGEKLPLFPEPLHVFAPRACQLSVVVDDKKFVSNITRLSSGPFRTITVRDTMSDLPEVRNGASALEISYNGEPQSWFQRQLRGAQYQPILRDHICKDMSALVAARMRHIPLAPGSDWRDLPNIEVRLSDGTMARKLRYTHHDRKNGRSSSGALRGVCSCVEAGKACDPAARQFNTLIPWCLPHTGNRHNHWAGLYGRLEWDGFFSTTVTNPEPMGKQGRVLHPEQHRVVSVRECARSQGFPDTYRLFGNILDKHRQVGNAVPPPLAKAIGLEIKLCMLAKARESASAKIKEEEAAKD

IC50 (DNMT1; [2])	EC50 [1]	DNMT1 BioChemical (pIC50 category) (DNMT1; [3])	IC50 (DNMT1; breaklight assay and/or SPA assay, repeated experimental runs, read-out: average pIC50 against DNMT1 (converted))	Compound
316 to 1000 nM	1000 to 31600 nM	–	–	CCc1c(C#N)c(SCc2ccc(N)nc2)nc(N2CCCN(C)CC2)c1C#N [Example 300, 2-(((6-Aminopyridin-3-yl)methyl)thio)-4-ethyl-6-(4-methyl-1,4-diazepan-1-yl)pyridine-3,5-dicarbonitrile]
–	316 to 1000 nM	D (Category D: ≥6.5)	–	CCc1c(C#N)c(SC(C(N)=O)c2ccccc2)nc(N(C)CCN2[C@@H](C)CC[C@@H]2C)c1C#N (stereo partly drawn) [Example 490, 2-((3,5-dicyano-6-((2-((2S,5S)-2,5-dimethylpyrrolidin-1-yl)ethyl)(methyl)amino)-4-ethylpyridin-2-yl)thio)-2-phenylacetamide]
–	1000 to 31600 nM	D (Category D: ≥6.5)	–	CCc1c(C#N)c(SC(C(N)=O)c2ccc(F)cc2)nc(N2CC[C@H](N(C)C)C2)c1C#N (stereo partly drawn) [Example 544, 2-((3,5-dicyano-6-((S)-3-(dimethylamino)pyrrolidin-1-yl)-4-ethylpyridin-2-yl)thio)-2-(4-fluorophenyl)acetamide]
–	> 31600 nM	D (Category D: ≥6.5)	–	CCc1c(C#N)c(SCc2ccc(CNC(=O)[C@H](C)N)cc2)nc(N2CCCN(C)CC2)c1C#N [Example 97, (S)-2-Amino-N-(4-(((3,5-dicyano-4-ethyl-6-(4-methyl-1,4-diazepan-1-yl)pyridin-2-yl)thio)methyl)benzyl)propanamide]
316 to 1000 nM	> 31600 nM	–	–	CCc1c(C#N)c(SCc2ccc(CNCCO)cc2)nc(N2CCCN(C)CC2)c1C#N [Example 90, 4-Ethyl-2-((4-(((2-hydroxyethyl)amino)methyl)benzyl)thio)-6-(4-methyl-1,4-diazepan-1-yl)pyridine-3,5-dicarbonitrile]
–	1000 to 31600 nM	D (Category D: ≥6.5)	–	CCc1c(C#N)c(SC(C(N)=O)c2ccccc2)nc(N(C)CCN2CCC(O)(CN)CC2)c1C#N (stereo not shown) [Example 170, 2-((6-((2-(4-(Aminomethyl)-4-hydroxypiperidin-1-yl)ethyl)(methyl)amino)-3,5-dicyano-4-ethylpyridin-2-yl)thio)-2-phenylacetamide]
–	1000 to 31600 nM	D (Category D: ≥6.5)	–	N#Cc1c(SC(C(N)=O)c2ccccc2)nc(N2CCC(OCCN)CC2)c(C#N)c1C1CC1 (stereo not shown) [Example 656, 2-((6-(4-(2-aminoethoxy)piperidin-1-yl)-3,5-dicyano-4-cyclopropylpyridin-2-yl)thio)-2-phenylacetamide]
316 to 1000 nM	1000 to 31600 nM	–	–	CCc1c(C#N)c(SC(C(N)=O)c2ccccc2)nc(N2CCN(Cc3cn[nH]c3)CC2)c1C#N (stereo not shown) [Example 187, 2-((6-(4-((1H-Pyrazol-4-yl)methyl)piperazin-1-yl)-3,5-dicyano-4-ethylpyridin-2-yl)thio)-2-phenylacetamide]
–	316 to 1000 nM	D (Category D: ≥6.5)	316 to 1000 nM and 316 nM	CCc1c(C#N)c(SC(C(N)=O)c2ccccc2)nc(N(C)CC(=O)NCC(C)(C)CO)c1C#N (stereo not shown) [Example 685, 2-((6-((2-amino-2-oxo-1-phenylethyl)thio)-3,5-dicyano-4-ethylpyridin-2-yl)(methyl)amino)-N-(3-hydroxy-2,2-dimethylpropyl)acetamide]
–	< 316 nM	D (Category D: ≥6.5)	–	CCc1c(C#N)c(SC(C(N)=O)c2ccc(C)cn2)nc(N2CCCN(C)CC2)c1C#N (stereo not shown) [Example 205, 2-((3,5-Dicyano-4-ethyl-6-(4-methyl-1,4-diazepan-1-yl)pyridin-2-yl)thio)-2-(5-methylpyridin-2-yl)acetamide]
–	< 316 nM	D (Category D: ≥6.5)	–	CCc1c(C#N)c(SCc2ccc(N(C)S(C)(=O)=O)cc2)nc(N2CCC(NC(=O)[C@H](C)N)CC2)c1C#N [Example 585, (S)-2-amino-N-(1-(3,5-dicyano-4-ethyl-6-((4-(N-methylmethylsulfonamido)benzyl)thio)pyridin-2-yl)piperidin-4-yl)propanamide]
–	< 316 nM	D (Category D: ≥6.5)	–	CCc1c(C#N)c(SC(C(N)=O)c2ccccc2)nc(N(C)CCNCCOC)c1C#N (stereo not shown) [Example 491, 2-((3,5-dicyano-4-ethyl-6-((2-((2-methoxyethyl)amino)ethyl)(methyl)amino)pyridin-2-yl)thio)-2-phenylacetamide]
–	> 31600 nM	A (Category A: <4.5)	–	CCc1c(C#N)c(S[C@H](C(N)=O)c2ccccc2)nc(N2CC[C@H](OP(=O)(O)O)C2)c1C#N [Example 417, (S)-1-(6-(((S)-2-amino-2-oxo-1-phenylethyl)thio)-3,5-dicyano-4-ethylpyridin-2-yl)pyrrolidin-3-yl dihydroden phosphate]
–	< 316 nM	D (Category D: ≥6.5)	–	CCc1c(C#N)c(SCc2ccc(N(C)S(C)(=O)=O)cc2)nc(N2CCC(NC(=O)[C@@H](C)N)CC2)c1C#N [Example 584, (R)-2-amino-N-(1-(3,5-dicyano-4-ethyl-6-((4-(N-methylmethylsulfonamido)benzyl)thio)pyridin-2-yl)piperidin-4-yl)propanamide]
–	< 316 nM	D (Category D: ≥6.5)	–	CCc1c(C#N)c(SC(C(N)=O)c2ccccc2)nc(N2CCC(N3C(=O)CCC3=O)CC2)c1C#N (stereo not shown) [Example 252, 2-((3,5-Dicyano-6-(4-(2,5-dioxopyrrolidin-1-yl)piperidin-1-yl)-4-ethylpyridin-2-yl)thio)-2-phenylacetamide]
316 to 1000 nM	> 31600 nM	–	–	CCc1c(C#N)c(SCc2ccc3c(c2)C(=O)C(=O)N3)nc(N2CCCN(C)CC2)c1C#N [Example 348, 2-(((2,3-Dioxoindolin-5-yl)methyl)thio)-4-ethyl-6-(4-methyl-1,4-diazepan-1-yl)pyridine-3,5-dicarbonitrile]
–	1000 to 31600 nM	D (Category D: ≥6.5)	–	CCc1c(C#N)c(SCc2ccc(N(C)S(C)(=O)=O)cc2)nc(N(C)CCNCCF)c1C#N [Example 500]
1000 to 31600 nM	> 31600 nM	–	–	CCc1c(C#N)c(SC(C(N)=O)c2ccnc(F)c2)nc(N2CCCN(C)CC2)c1C#N (stereo not shown) [Example 239, 2-((3,5-Dicyano-4-ethyl-6-(4-methyl-1,4-diazepan-1-yl)pyridin-2-yl)thio)-2-(2-fluoropyridin-4-yl)acetamide]
316 to 1000 nM	1000 to 31600 nM	–	–	CCc1c(C#N)c(SC(C(N)=O)c2ccccc2)nc(N(C)CCC(N)=O)c1C#N (stereo not shown) [Example 230, 3-((6-(2-Amino-2-oxo-1-phenylethylthio)-3,5-dicyano-4-ethylpyridin-2-yl)(methyl)amino)propanamide]
–	< 316 nM	D (Category D: ≥6.5)	–	CCc1c(C#N)c(SC(C(N)=O)c2ccccc2)nc(N(C)CCN2CCC[C@@H]2CO)c1C#N (stereo partly drawn) [Example 479, 2-((3,5-dicyano-4-ethyl-6-((2-((R)-2-(hydroxymethyl)pyrrolidin-1-yl)ethyl)(methyl)amino)pyridin-2-yl)thio)-2-phenylacetamide]

Compound	IC50 (DNMT1; [2])	EC50 [1]	DNMT1 BioChemical (pIC50 category) (DNMT1; [3])	IC50 (DNMT1; breaklight assay and/or SPA assay, repeated experimental runs, read-out: average pIC50 against DNMT1 (converted))
CCc1c(C#N)c(S[C@H](C(N)=O)c2ccc(F)cc2)nc(N2CCC(N(C)C)CC2)c1C#N (single isomer, unassigned) [Example 465, 2-((3,5-dicyano-6-(4-(dimethylamino)piperidin-1-yl)-4-ethylpyridin-2-yl)thio)-2-(4-fluorophenyl)acetamide, Formic acid salt]	–	< 316 nM	D (Category D: ≥6.5)	–
